Results on six compounds are retold here after patent US20060069132A1, “Azolecarboxamide herbicides” (priority 2004, published 2006).

One assay relates to Surinam grass. As to the kind of experiment: Test E pre-/postemergence herbicide test. The assay is classed as in vivo, Urochloa decumbens. Particulars: Preemergence. The text has this:
(§1) Seeds of plant species selected from bipinnate beggarticks (Bidens bipinnata L.), hairy beggarticks (Bidens radiata Thuill.), bermudagrass (Cynodon dactylon (L.) Pers.), Surinam grass (Urochloa decumbens (Staph) R. D. Webster, previously named Brachiaria decumbens Stapf), large crabgrass (Digitaria sanguinalis (L.) Scop.), green foxtail (Setaria viridis (L.) P. Beauv.), goosegrass (Eleusine indica (L.) Gaertn.), johnsongrass (Sorghum halepense (L.) Pers.), kochia (Kochia scoparia (L.) Schrad.), pitted morningglory (Ipomoea lacunosa L.), purple nutsedge (Cyperus rotundus L.), common ragweed (Ambrosia elatior L.), mustard (Brassica nigra (L.) W. D. J. Koch), guineagrass (Panicum maximum Jacq.), dallisgrass (Paspalum dilatatum Poir.), barnyardgrass (Echinochloa crus-galli (L). P. Beauv.), southern sandbur (Cenchrus echinatus L.), common sowthistle (Sonchus oleraceous L.), prickly sida (Sida spinosa L.), Italian ryegrass (Lolium multiflorum Lam.), common purslane (Portulaca oleracea L.), broadleaf signalgrass (Brachiaria platyphylla (Griseb.) Nash), common groundsel (Senecio vulgaris L.), common chickweed (Stellaria media (L.) Vill/Cyr.), tropical spiderwort (Commelina benghalensis L.), annual bluegrass (Poa annua L.), downy bromegrass (Bromus tectorum L.), itchgrass (Rottboellia cochinchinensis (L.) L.f.), quackgrass (Elytrigia repens (L.) Nevski), Canada horseweed (Erigeron Canadensis L.), field bindweed (Convolvulus arvensis L.), spotted spurge (Euphorbia maculata L.), common mallow (Malva sylvestris (=s silvestris) L.), and Russian thistle (Salsola kali L. ssp. Ruthenica (Iljin) Soo) were planted and treated preemergence with test chemicals formulated in a non-phytotoxic solvent mixture which included a surfactant.
(§2) At the same time, plants selected from these weed species were treated with postemergence applications of some of the test chemicals formulated in the same manner. Plants ranged in height from 2 to 18 cm (1- to 4-leaf stage) for postemergence treatments. Treated plants and controls were maintained in a greenhouse for 12 to 14 days, after which time all species were compared to controls and visually evaluated. Plant response ratings, summarized in Table E, are based on a scale of 0 to 100 where 0 is no effect and 100 is complete control. A dash (-) response means no test result.

The next assay relates to purple nutsedge. As to the kind of experiment: Test E pre-/postemergence herbicide test. Particulars: Preemergence, scale 0 (no effect) to 100 (complete control). The assay is classed as in vivo, Cyperus rotundus.
Excerpt: as §1, §2

A further assay has as its system Italian ryegrass. As to the kind of experiment: Test E pre-/postemergence herbicide test. Type of assay: in vivo, Lolium multiflorum. The settings on record: Preemergence.
Excerpt: as §1, §2

The test system of a further assay is common mallow. Nature of the assay: Test E pre-/postemergence herbicide test. The assay is classed as in vivo, Malva sylvestris. The settings on record: Preemergence.
Excerpt: as §1, §2

The next assay concerns guineagrass. As to the kind of experiment: Test E pre-/postemergence herbicide test. Type of assay: in vivo, Panicum maximum. The settings on record: Preemergence.
Excerpt: as §1, §2

A further assay relates to broadleaf signalgrass. As to the kind of experiment: Test E pre-/postemergence herbicide test. The assay is classed as in vivo, Brachiaria platyphylla. Particulars: Preemergence.
Excerpt: as §1, §2

For another assay, the system named is mustard. Nature of the assay: Test E pre-/postemergence herbicide test. The assay is classed as in vivo, Brassica nigra. Particulars: Preemergence.
Excerpt: as §1, §2

The next assay relates to bermudagrass. Nature of the assay: Test E pre-/postemergence herbicide test. Particulars: Preemergence. The assay is classed as in vivo, Cynodon dactylon.
Excerpt: as §1, §2

In the next assay the test system is common sowthistle. As to the kind of experiment: Test E pre-/postemergence herbicide test. Type of assay: in vivo, Sonchus oleraceous. The settings on record: Preemergence.
Excerpt: as §1, §2

Another assay has as its system pitted morningglory. As to the kind of experiment: Test E pre-/postemergence herbicide test. The assay is classed as in vivo, Ipomoea lacunosa. Particulars: Preemergence.
Excerpt: as §1, §2

The next assay has as its system downy bromegrass. Nature of the assay: Test C postemergence herbicide test. The assay is classed as in vivo, Bromus tectorum. How it is done:
At the same time, plants selected from these crop and weed species and also winter barley (Hordeum vulgare L.), blackgrass (Alopecurus myosuroides Huds.), canarygrass (Phalaris minor Retz.), chickweed (Stellaria media (L.) Vill.), downy bromegrass (Bromus tectorum L.), green foxtail (Setaria viridis (L.) Beauv.), Italian ryegrass (Lolium multiflorum Lam.), wheat (Triticum aestivum L.), wild oat (Avenafatua L.) and windgrass (Apera spica-venti (L.) Beauv.) were treated with postemergence applications of some of the test chemicals formulated in the same manner. Plants ranged in height from 2 to 18 cm (1- to 4-leaf stage) for postemergence treatments. Plant species in the flooded paddy test consisted of rice (Oryza sativa), smallflower umbrella sedge (Cyperus difformis L.), ducksalad (Heteranthera limosa (Sw.) Willd.) and barnyardgrass (Echinochloa crus-galli (L.) Beauv.) grown to the 2-leaf stage for testing. Treated plants and controls were maintained in a greenhouse for 12 to 14 days, after which time all species were compared to controls and visually evaluated. Plant response ratings, summarized in Table C, are based on a scale of 0 to 100 where 0 is no effect and 100 is complete control. A dash (-) response means no test result.

[1] abbreviates: 375 g ai/ha, scale 0 (no effect) to 100 (complete control).
[2] abbreviates: 500 g ai/ha, scale 0 (no effect) to 100 (complete control).
The mark [3] stands for this setting: 250 g ai/ha, scale 0 (no effect) to 100 (complete control).
[4] abbreviates: Postemergence, 250 g ai/ha, scale 0 to 100, 0 no effect, 100 complete control.
Where [5] appears, read: postemergence, 125 g ai/ha, scale 0 to 100.
The mark [6] stands for this setting: postemergence, 62 g ai/ha, scale 0 to 100.
Where [7] appears, read: postemergence, 31 g ai/ha, scale 0 to 100.
Setting [8] is: Postemergence, 500 g ai/ha, scale 0 to 100, 0 no effect, 100 complete control.

`CCc1nn(C(C)(C)C)cc1C(=O)Nc1cc(C(=O)N(C)C)ccn1` [Compound 293]: the “Plant response rating, Surinam Grass” value in the assay with Surinam grass (125 g ai/ha, scale 0 to 100) stood at 80; in the assay with Surinam grass (setting [1]) it was 100; in the assay on Surinam grass (setting [2]), 100. For the same compound, the “Plant response rating, Nutsedge, Purple” value with purple nutsedge (250 g ai/ha) is 40; in the assay with purple nutsedge (375 g ai/ha), 50; with purple nutsedge (500 g ai/ha), 60. Moreover, the “Plant response rating, Ryegrass, Italian” value is given as 60 in the assay with Italian ryegrass (125 g ai/ha, scale 0 to 100); 95 in the assay on Italian ryegrass (setting [3]); 95 in the assay with Italian ryegrass (setting [1]); 100 in the assay with Italian ryegrass (setting [2]). In addition, the “Plant response rating, Mallow” value with common mallow (125 g ai/ha, scale 0 to 100) turned out to be 40; with common mallow (setting [3]), 50; in the assay with common mallow (setting [1]), 80; with common mallow (setting [2]) it was 85. Further, the “Plant response rating, Guineagrass” value came to 100 in the assay with guineagrass (125 g ai/ha, scale 0 to 100); 100 in the assay with guineagrass (setting [3]); 100 in the assay on guineagrass (setting [1]); 100 with guineagrass (setting [2]). Besides, the “Plant response rating, Signalgrass” value with broadleaf signalgrass (125 g ai/ha, scale 0 to 100) is on record as 50; with broadleaf signalgrass (setting [3]), 95; with broadleaf signalgrass (setting [1]), 95; in the assay with broadleaf signalgrass (setting [2]), 100. Further, the “Plant response rating, Black Mustard” value was 95 in the assay on mustard (125 g ai/ha, scale 0 to 100); 100 in the assay with mustard (setting [3]); 100 in the assay on mustard (setting [1]); 100 in the assay with mustard (setting [2]). The “Plant response rating, Bermudagrass” value with bermudagrass (125 g ai/ha, scale 0 to 100) stood at 90; in the assay with bermudagrass (setting [3]), 95; in the assay with bermudagrass (setting [1]), 95; with bermudagrass (setting [2]), 95. In addition, the “Plant response rating, Sowthistle” value in the assay with common sowthistle (125 g ai/ha, scale 0 to 100) is given as 75; in the assay on common sowthistle (setting [3]), 95; in the assay on common sowthistle (setting [1]), 95; in the assay with common sowthistle (setting [2]) it was 100. Besides, the “Plant response rating, Morningglory” value is recorded as 10 in the assay on pitted morningglory (125 g ai/ha, scale 0 to 100); 40 in the assay with pitted morningglory (setting [3]); 50 in the assay on pitted morningglory (setting [1]); 90 with pitted morningglory (setting [2]).

With `CCn1nc(C(C)(C)C)cc1C(=O)Nc1cccc(OC(F)F)c1` [Compound 332], in the assay on downy bromegrass (Postemergence, 500 g ai/ha, scale 0 to 100), the “Bromegrass, Downy plant response rating” value turned out to be 65. The figures for the “Plant response rating, Bromegrass, Downy” value in the assay with downy bromegrass (setting [4]), in the assay on downy bromegrass (setting [5]) and in the assay on downy bromegrass (setting [6]) were 50, 40 and 35, respectively.

Turning to `CCn1nc(C(C)(C)C)cc1C(=O)Nc1cc(C(=S)N(C)C)ccn1` [Compound 334], the “Plant response rating, Bromegrass, Downy” value in the assay on downy bromegrass (setting [4]) is reported as 45; in the assay on downy bromegrass (setting [5]), 35; in the assay on downy bromegrass (setting [7]) it was 20; in the assay on downy bromegrass (setting [6]) it was 30.

For the compound `CCNC(=O)c1ccc(F)c(NC(=O)c2c3c(nn2CC)C(C)(C)CC3)c1` [Compound 353], the “Plant response rating, Bromegrass, Downy” value in the assay with downy bromegrass (setting [4]) came to 30; with downy bromegrass (setting [8]), 35; in the assay with downy bromegrass (setting [5]), 20; in the assay on downy bromegrass (setting [6]), 10.

For `CCOC(=O)c1cccc(NC(=O)c2nn(C(C)(C)CC)nc2CC)c1` [Compound 375], the “Plant response rating, Bromegrass, Downy” value in the assay with downy bromegrass (setting [4]) is on record as 60; with downy bromegrass (setting [5]), 60; with downy bromegrass (setting [7]), 40; with downy bromegrass (setting [6]), 60.

With `C=CCNC(=O)c1cccc(NC(=O)c2nn(C(C)(C)C)nc2CC)c1` [Compound 414], the “Plant response rating, Bromegrass, Downy” value in the assay on downy bromegrass (setting [4]) came to 55; in the assay on downy bromegrass (setting [8]), 60; with downy bromegrass (setting [5]) it was 45; with downy bromegrass (setting [6]), 40.
